Laboratory results taken from patent publication US9878015B2, “Pharmaceutical compositions and methods for the treatment of metastatic cancer” (IMMUNE SYSTEM KEY LTD., priority 2013, dated 2018).
“Also recorded” adds a separate entry of the source. Where no end group is shown, it is not given here.

How the values were obtained:
tumor = conditions: adult Balb/C mice model; cited from earlier work
[1] = tested on: soluble ST2 (sST2) secreted by human adenocarcinoma pancreatic cancer cells; assay: Soluble ST2 (sST2) ELISA assay, pancreatic cancer cells; assay type: cell-based; conditions: 1-50 μg/ml peptide; all tested cells; FIG. 2
Method: (§1) Soluble ST2 (sST2) ELISA Assay
(§2) Human adenocarcinoma pancreatic cancer cells and human breast cancer cells (MDA-MB-231) were grown until reaching 70-80% cell density in the flask and were detached from the flask using Trypsin EDTA as described above. Cells suspended in medium and Trypsin were then centrifuged and re-suspended in 2 ml fresh medium (as described for the BrdU incorporation assay above).
(§3) The cells were then fluidized and 3 ml medium were added to the cell suspension such that the cells were re-suspended in a total volume of 5 ml medium. The cells were then counted and diluted to a concentration of 50,000 cells/ml medium. Cells at 2 ml per plate were placed in each well of a 6 well plate such that each well contained 100,000 cells. The cells were incubated over-night in 37° C. in the incubator.
(§4) The supernatant was discarded and replaced by 1 ml RPMI medium containing 2.5% FBS. The cells were then incubated for 24 or 48 hours in 37° C. in the presence of the Nerofe peptide at the final concentrations of 1, 10, 25 and 50 μg/ml. […]
(§5) Detecting of sST2 was performed by diluted anti-sST2 Affinity purified antibody (Genmed, project ID 35622 B-Form) 1:100 in diluent (0.05% TW-20, 0.1% BSA in PBS), where 100 μl of the detection antibody was loaded on each well. […] Plate absorbance was performed in a microplate reader at O.D. of 450/590 nm.

[2] = tested on: adenocarcinoma pancreatic cancer cells, cell line 1; assay: Radius cell migration assay, cell line 1; assay type: cell-based, human; conditions: cell line 1, Nerofe 10 μg/ml
Method: (§6) Cell Migration Assay of Human Cancer Cell
(§7) Human adenocarcinoma pancreatic cancer cells were grown until reaching 70-80% cell density in the flask and detached from the flask using Trypsin EDTA as described above. Cells suspended in medium and Trypsin were then centrifuged 10 minutes at 300 g (4° C.) and re-suspended in 2 ml fresh medium (as described for the BrdU incorporation assay above).
(§8) The cells were then fluidized and 3 ml medium were added such that the cells were suspended in a volume of 5 ml medium and subsequently counted and diluted to a concentration of 150,000 or 300,000 cells/ml medium.
(§9) Alternatively, Dulbecco's modification of Eagle's medium (DMEM, Biological Industries cat no. 01-055-1A) supplemented with 50 ml FBS (Biological industries cat no. 04-121-1A), 5 ml Hepes 1M (Biological industries cat no. 03-025-1C), 0.5 ml Amphotericin B 2500 μg/ml (Biological industries cat no. 03-029-1) and 5 ml Gentamycin sulfate 50 mg/ml (Biological industries cat no. 03-035-1) was used for cell culturing and re-suspension and the cells were re-suspended to a final concentration of 100,000 cells/ml medium.
(§10) A radius 96-well Cell Migration Assay plate (Cell Biolabs Inc. cat no. CBA-126) was prepared according to the manufacturer's protocol and each well was loaded with 100 μl cells such that each well contained 10,000, 15,000 or 30,000 cells. […]

[3] = tested on: adenocarcinoma pancreatic cancer cells, cell line 2; assay: Radius cell migration assay, cell line 2; assay type: cell-based, human; conditions: cell line 2, Nerofe 10 μg/ml
Method: as §6, §7, §8, §9, §10

[4] = tested on: soluble ST2 (sST2) in human breast cancer cells (MDA-MB-231); assay: Soluble ST2 (sST2) ELISA assay, breast cancer cells; assay type: cell-based; conditions: MDA-MB-231, similar assay conditions, data not shown
Method: as §1, §2, §3, §4, §5

[5] = tested on: human adenocarcinoma pancreatic cancer cells; assay: Bromodeoxyuridine (BrdU) incorporation assay (cell proliferation); assay type: cell-based; conditions: 1, 10, 25 and 50 μg/ml peptide vs control; no correlation with concentration
Method: Bromodeoxyuridine (BrdU) Incorporation Assay
Human adenocarcinoma pancreatic cancer cells and human breast cancer cells were grown until reaching 70-80% density in the flask and detached from the flask using Trypsin EDTA as described above (the above protocol for cell culturing was used until the step of adding 10 ml medium to the Trypsin-treated cells). The cells suspended in medium and Trypsin were then transferred into a 50 ml conical tube and centrifuged at 300 g (10 min, 4° C.). The supernatant was then discarded and the cell pellet was re-suspended in fresh medium (2 ml medium prepared as described above).
The cells were then fluidized and additional 3 ml medium were added to the cell suspension such that the cells were re-suspended in a total volume of 5 ml medium. The cells were then counted and diluted to a concentration of 20,000 cells/ml medium. Next, the cells were placed in a 96 well plate (Nunc cat no. 167008), placing 100 μl cell suspension per well, such that each well contained 2000 cells. The cells were then incubated over-night in 37° C. in the incubator.
The concentrated Nerofe peptide was suspended in a total volume of 100 μl medium and added to the assayed cells in the 96-well plate to a final concentration of 1, 10, 25 and 50 μg/ml. Control (background) assays were performed in the absence of the peptide, namely, 100 μl medium was added to control cells. […]

[6] = tested on: various cancer cells of hematopoietic origin; conditions: inhibitory effect defined as at least 40% inhibition vs control; cited from earlier work
[7] = tested on: human adenocarcinoma pancreatic cancer cells; assay: Cell migration assay after 48 hours pre-incubation with peptide; assay type: cell-based; conditions: 25 μg/ml peptide for 48 hours before assay; 27 hours vs 1 hour; FIG. 3, FIG. 4
Method: as §7, §9
Alternatively, the supernatant was discarded and replaced by 200 μl DMEM containing 2.5% 1-BS and the required treatment, namely control (without Nerofe), 10, 25 or 50 μg/ml Nerofe. The cells were then incubated at 37° C. for 48 hours in an incubator.
When the cells reached 70-80% density, the supernatant was discarded and the gel was removed from the center of the well, without affecting the attachment of cells as described in the manufacturer's protocol. […]

[8] = tested on: vascular endothelial growth factor (VEGF); assay: Clinical study: serum level of VEGF in cancer patients (ELISA); assay type: in vivo, human
Method: Therefore a clinical study that follows the serum levels of VEGF was conducted in cancer patients that were administered with the peptide Nerofe. Patients participating in the study were diagnosed with various cancer types, namely colon, colorectal, spindle cell neoplasm, pancreas, small intestine, non small cell lung carcinoma, hepatic carcinoma, colon adenocarcinoma and rectal adenocarcinoma, as summarized in Table 3 below.
Patients were included in at least one of Cohort 1, Cohort 2, Cohort 3 and Cohort 4 and received doses of […] (about 0.16, 0.32, 0.64 or 1.28 mg/kg body weight) of the peptide Nerofe, respectively, at the indicated time points.
Serum levels of VEGF were measured in blood samples obtained form these patients using an Elisa kit for human VEFG (R&D systems) and the results are presented in FIG. 5 (for the patients of Cohort 1 and Cohort 2) and in FIG. 6 (for the patients of Cohort 3 and Cohort 4).

[9] = tested on: tissue plasminogen activator (TPA) secreted by human adenocarcinoma pancreatic cancer cells; assay: Tissue type plasminogen activator (TPA) human ELISA assay on cell supernatant; assay type: cell-based; conditions: 1-50 μg/ml peptide, 24 hours; cell line 1, 2 and 3; FIG. 1
Method: Tissue Type Plasminogen Activator (TPA) Human ELISA Assay
Human adenocarcinoma pancreatic cancer cells were grown until reaching 70-80% density in the flask and were detached from the flask using Trypsin EDTA as described above. Cells suspended in medium and Trypsin were then centrifuged and re-suspended in 2 ml fresh medium (as described for the BrdU incorporation assay, above).
The cells were then fluidized and 3 ml medium were added to the cell suspension such that the cells were re-suspended in a total volume of 5 ml medium. Cells were counted and diluted to a concentration of 50,000 cells/ml medium. Next, the cells were placed in each well of a 6 well plate (Nunc cat no. 140675), by placing 2 ml cells culture per well such that each well contains 100,000 cells. The cells were next incubated over-night at 37° C. in the incubator.
The supernatant was discarded and replaced by 1 ml RPMI medium containing 2.5% FBS. Cells were then incubated for 24 hours or 48 hours at 37° C. in the presence of the Nerofe peptide at the final concentrations of 1, 10, 25 and 50 μg/ml. […]
Next, a TPA ELISA assay was performed as follows: the supernatant was thawed and kept on ice, then diluted 1:15 with the TPA diluents provided with the kit (x1N, Abcam cat no. ab108914). The procedure was continued according to the manufacturer's protocol and ELISA plates were read at an optical density (O.D.) of 450/590.

| Sequence | tumor size (tumor) | level of sST2 compared to cells not incubated with the peptide [1] | % inhibition of migration ([2]; 8 hours) [%] | % Migration after 8 hours ([2]; control = 100) [%] | % inhibition of migration ([3]; 8 hours) [%] | % Migration after 8 hours ([3]; control = 100) [%] | decrease in the level of sST2 [4] | inhibition of BrdU incorporation [5] | cell proliferation [6] | migration of cells into cell-free area [7] | change of serum level of VEGF ([8]; cancer patients, Cohort 1 and Cohort 2, 6 or 12 mg/m^2, FIG. 5) | decrease of serum level of VEGF ([8]; cancer patients, Cohort 3 and Cohort 4, 24 or 48 mg/m^2, FIG. 6) | decrease of serum level of VEGF in single patients ([8]; patients 13 (small intestine) and 19 (rectal adenocarcinoma)) | level of secreted TPA compared to control cells [9] |
| --- | --- | --- | --- | --- | --- | --- | --- | --- | --- | --- | --- | --- | --- | --- |
| LHLWLSGEPVQSSGTKDMRSKSDSKRVSDKQLISKAVWWTFFLPSTLWERK (isolated synthetic peptide (fragment of T 101 peptide)) [T101 peptide, Full length thymus peptide, devoid of its N-terminal 33 amino acids; 51 amino acids long] | significantly reduce tumor size | – | – | – | – | – | – | – | – | – | – | – | – | – |
| WWTFFLPSTLWERK [Nerofe, C-terminal 14 all D amino acid fragment of the full T101 peptide, …] | – | lower levels of sST2; also recorded: dose-dependent | 30 | 70 | 82 | 18 | about 80% | up to 26% | inhibit cell proliferation | substantially inhibited | increase | 30-40% | particularly significant | lower levels of secreted TPA |
